Laboratory results published in patent publication US10899759B2, “Positive allosteric modulators of the muscarinic acetylcholine receptor M1” (Vanderbilt University, priority 2016, dated 2021).

Target: T1, human mAChR M1 (Homo sapiens, UniProt P11229)
T1 construct: host or cells: CHO-K1
T1 sequence (P11229 1-460): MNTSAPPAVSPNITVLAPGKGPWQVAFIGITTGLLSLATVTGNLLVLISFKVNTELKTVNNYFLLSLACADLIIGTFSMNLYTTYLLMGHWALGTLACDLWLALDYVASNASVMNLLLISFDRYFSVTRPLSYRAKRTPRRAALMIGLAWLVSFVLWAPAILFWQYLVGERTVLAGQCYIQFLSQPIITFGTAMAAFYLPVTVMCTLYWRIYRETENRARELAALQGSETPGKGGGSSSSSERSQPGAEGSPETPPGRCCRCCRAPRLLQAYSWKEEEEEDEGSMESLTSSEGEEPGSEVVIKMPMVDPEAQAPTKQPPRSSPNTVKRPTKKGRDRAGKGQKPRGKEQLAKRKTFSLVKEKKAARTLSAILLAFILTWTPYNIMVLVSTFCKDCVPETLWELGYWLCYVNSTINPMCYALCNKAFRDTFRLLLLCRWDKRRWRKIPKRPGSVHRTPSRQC
Test: mAChR M1 cell-based functional assay (calcium mobilization, Fluo-4, FDSS)
Details: CHO-K1 cells stably expressing hM1; for Emax: EC20 acetylcholine response, read-out: Human M1 Emax; for EC50: positive allosteric modulator activity as increase in the EC20 acetylcholine response
Protocol: Chinese hamster ovary (CHO-K1) cells stably expressing rat (r)M1 were purchased from the American Type Culture Collection and cultured according to their indicated protocol. […] To make stable rM2, hM2, rM3, hM4, and rM4 cell lines for use in calcium mobilization assays, these cells also were stably transfected with a chimeric G-protein (Gqi5) (provided by B. R. Conklin, University of California, San Francisco) using Lipofectamine 2000. rM1, hM1, rM3, hM3, rM5, and hM5 cells were grown in Ham's F-12 medium containing 10% heat-inactivated fetal bovine serum (FBS), 20 mM HEPES, and 50 μg/mL G418 sulfate. rM2-Gqi5, hM2-Gqi5, and hM4-Gqi5 cells were grown in the same medium also containing 500 μg/mL Hygromycin B. Stable rM4-Gqi5 cells were grown in DMEM containing 10% heat-inactivated FBS, 20 mM HEPES, 400 μg/mL G418 sulfate, and 500 μg/mL Hygromycin B.
For high throughput measurement of agonist-evoked increases in intracellular calcium, CHO-K1 cells stably expressing muscarinic receptors were plated in growth medium lacking G418 and hygromycin at 15,000 cells/20 μL/well in Greiner 384-well black-walled, tissue culture (TC)-treated, clear-bottom plates (VWR). Cells were incubated overnight at 37° C. and 5% CO2. […] Compound master plates were formatted in an 11 point CRC format (1:3 dilutions) in 100% DMSO with a starting concentration of 10 mM using the BRAVO liquid handler (Agilent). Test compound CRCs were then transferred to daughter plates (240 nL) using the Echo acoustic plate reformatter (Labcyte, Sunnyvale, Calif.) and then diluted into assay buffer (40 μL) to a 2× stock using a Thermo Fisher Combi (Thermo Fisher Scientific, Waltham, Mass.).
Calcium flux was measured using the Functional Drug Screening System (FDSS) 6000 (Hamamatsu Corporation, Tokyo, Japan) as an increase in the fluorescent static ratio. Compounds were applied to cells (20 μL, 2×) using the automated system of the FDSS 6000 at 4 s into the 300 s protocol and the data were collected at 1 Hz. […] Agonist activity was analyzed as a concentration-dependent increase in calcium mobilization upon compound addition. Positive allosteric modulator activity was analyzed as a concentration-dependent increase in the EC20 acetylcholine response. Antagonist activity was analyzed as a concentration-dependent decrease in the EC80 acetylcholine response. Concentration-response curves were generated using a four-parameter logistical equation in XLfit curve fitting software (IDBS, Bridgewater, N.J.) for Excel (Microsoft, Redmond, Wash.) or Prism (GraphPad Software, Inc., San Diego, Calif.).
The compound numbers correspond to the compound numbers used in Table 1.

SMILES | Emax [%] | EC50 [nM]
Cn1cc(-c2ccc(Cc3cc(C(=O)N[C@H]4CCCC[C@@H]4O)nc4c3ccn4C)cn2)cn1 [Compound 46, N-[(1S,2S)-2-hydroxycyclohexyl]-1-methyl-4-[[6-(1-methylpyrazol-4-yl)-3-pyridyl]methyl]pyrrolo[2,3-b]pyridine-6-carboxamide] | 73.9 | 30
Cn1cc(-c2ccc(Cc3cc(C(=O)NC4CC5(COC5)C4)nc4c3ccn4C)cn2)cn1 [Compound 48, 1-methyl-4-[[6-(1-methylpyrazol-4-yl)-3-pyridyl]methyl]-N-(2-oxaspiro[3.3]heptan-6-yl)pyrrolo[2,3-b]pyridine-6-carboxamide] | 87.1 | 140
Cn1cc(-c2ccc(Cc3cc(C(=O)NC4CCOC(C)(C)C4)nc4c3ccn4C)cn2)cn1 (stereo not shown) [Compound 49, N-(2,2-dimethyltetrahydropyran-4-yl)-1-methy1-4-[[6-(1-methylpyrazol-4-yl)-3-pyridyl]methyl]pyrrolo[2,3-b]pyridine-6-carboxamide] | 87.9 | 180
Cn1cc(-c2ccc(Cc3cc(C(=O)N[C@H]4CC[C@@H]4O)nc4c3ccn4C)cn2)cn1 [Compound 50, N-[(1S,2S)-2-hydroxycyclobutyl]-1-methyl-4-[[6-(1-methylpyrazol-4-yl)-3-pyridyl]methyl]pyrrolo[2,3-b]pyridine-6-carboxamide] | 86.2 | 380
Cc1nc(-c2ccc(Cc3cc(C(=O)N[C@H]4CCOC[C@@H]4O)nc4c3ccn4C)cc2)co1 [Compound 51, N-[(3R,4S)-3-hydroxytetrahydropyran-4-yl]-1-methyl-4-[[4-(2-methyloxazol-4-yl)phenyl]methyl]pyrrolo[2,3-b]pyridine-6-carboxamide] | 83.4 | 30
Cc1nc(-c2ccc(Cc3cc(C(=O)N[C@H]4CCCC[C@@H]4O)nc4c3ccn4C)cc2)co1 [Compound 52, N-[(1S,2S)-2-hydroxycyclohexyl]-1-methyl-4-[[4-(2-methyloxazol-4-yl)phenyl]methyl]pyrrolo[2,3-b]pyridine-6-carboxamide] | 80.1 | 100
Cc1nc(-c2ccc(Cc3cc(C(=O)NC4CC5(COC5)C4)nc4c3ccn4C)cc2)co1 [Compound 54, 1-methyl-4-[[4-(2-methyloxazol-4-yl)phenyl]methyl]-N-(2-oxaspiro[3.3]heptan-6-yl)pyrrolo[2,3-b]pyridine-6-carboxamide] | 84.6 | 380
Cc1nc(-c2ccc(Cc3cc(C(=O)NC4CCOC(C)(C)C4)nc4c3ccn4C)cc2)co1 (stereo not shown) [Compound 55, N-(2,2-dimethyltetrahydropyran-4-yl)-1-methyl-4-[[4-(2-methyloxazol-4-yl)phenyl]methyl]pyrrolo[2,3-b]pyridine-6-carboxamide] | 86.1 | 520
Cc1nc(-c2ccc(Cc3cc(C(=O)N[C@H]4CCC[C@@H]4O)nc4c3ccn4C)cc2)co1 [Compound 56, N-[(1S,2S)-2-hydroxycyclopentyl]-1-methy1-4-[[4-(2-methyloxazol-4-yl)phenyl]methyl]pyrrolo[2,3-b]pyridine-6-carboxamide] | 84 | 270
Cc1nc(-c2ccc(Cc3cc(C(=O)N[C@H]4CC[C@@H]4O)nc4c3ccn4C)cc2)co1 [Compound 57, N-[(1S,2S)-2-hydroxycyclobutyl]-1-methy1-4-[[4-(2-methyloxazol-4-yl)phenyl]methyl]pyrrolo[2,3-b]pyridine-6-carboxamide] | 83.6 | 840
Cc1nc(-c2ccc(Cc3cc(C(=O)NCC4CCOCC4)nc4c3ccn4C)cc2)co1 [Compound 58, 1-methyl-4-[[4-(2-methyloxazol-4-yl)phenyl]methyl]-N-(tetrahydropyran-4-ylmethyl)pyrrolo[2,3-b]pyridine-6-carboxamide] | 84.1 | 1050
Cn1ccc2c(Cc3ccc(-c4nccs4)cc3)cc(C(=O)N[C@H]3CCOC[C@@H]3O)nc21 [Compound 59, N-[(3R,4S)-3-hydroxytetrahydropyran-4-yl]-1-methy1-4-[(4-thiazol-2-ylphenyl)methyl]pyrrolo[2,3-b]pyridine-6-carboxamide] | 57.3 | 30
Cn1ccc2c(Cc3ccc(-c4nccs4)cc3)cc(C(=O)N[C@H]3CCCC[C@@H]3O)nc21 [Compound 60, N-[(1S,2S)-2-hydroxycyclohexyl]-1-methyl-4-[(4-thiazol-2-ylphenyl)methyl]pyrrolo[2,3-b]pyridine-6-carboxamide] | 55.4 | 110
Cn1ccc2c(Cc3ccc(-c4nccs4)cc3)cc(C(=O)NC3CC4(COC4)C3)nc21 [Compound 62, 1-methyl-N-(2-oxaspiro[3.3]heptan-6-yl)-4-[(4-thiazol-2-ylphenyl)methyl]pyrrolo[2,3-b]pyridine-6-carboxamide] | 60.6 | 870
Cn1ccc2c(Cc3ccc(-c4nccs4)cc3)cc(C(=O)N[C@H]3CC[C@@H]3O)nc21 [Compound 63, N-[(1S,2S)-2-hydroxycyclobutyl]-1-methyl-4-[(4-thiazol-2-ylphenyl)methyl]pyrrolo[2,3-b]pyridine-6-carboxamide] | 60.4 | 1500
Cn1ccc2c(Cc3ccc(-c4nccs4)cc3)cc(C(=O)N[C@H]3CCC[C@@H]3O)nc21 [Compound 64, N-[(1S,2S)-2-hydroxycyclopentyl]-1-methyl-4-[(4-thiazol-2-ylphenyl)methyl]pyrrolo[2,3-b]pyridine-6-carboxamide] | 57.2 | 33600
C[C@@H]1CC(NC(=O)c2cc(Cc3ccc(-c4nccs4)cc3)c3ccn(C)c3n2)C[C@H](C)O1 (stereo partly drawn) [Compound 65, N-[(2S,6R)-2,6-dimethyltetrahydropyran-4-yl]-1-methyl-4-[(4-thiazol-2-ylphenyl)methyl]pyrrolo[2,3-b]pyridine-6-carboxamide] | 58.6 | 2780
Cn1ccc2c(Cc3ccc(-c4nccs4)cc3)cc(C(=O)NC3CCOC(C)(C)C3)nc21 (stereo not shown) [Compound 66, N-(2,2-dimethyltetrahydropyran-4-yl)-1-methyl-4-[(4-thiazol-2-ylphenyl)methyl]pyrrolo[2,3-b]pyridine-6-carboxamide] | 59.6 | 1650
Cn1ccc2c(Cc3ccc(-c4nccs4)cc3)cc(C(=O)NC3CCOCC3(C)C)nc21 (stereo not shown) [Compound 67] | 61.2 | 1390
Cn1ccc2c(Cc3ccc(-c4nccs4)cc3)cc(C(=O)NCC3CCOCC3)nc21 [Compound 68, 1-methyl-N-(tetrahydropyran-4-ylmethyl)-4-[(4-thiazol-2-ylphenyl)methyl]pyrrolo[2,3-b]pyridine-6-carboxamide] | 37.9 | 1450
O=C(N[C@H]1CCCC[C@@H]1O)c1cc(Cc2ccc(-n3cccn3)cc2)c2ccsc2n1 [Compound 69, N-[(1S,2S)-2-hydroxycyclohexyl]-4-[(4-pyrazol-1-ylphenyl)methyl]thieno[2,3-b]pyridine-6-carboxamide] | 52.9 | 30
O=C(N[C@H]1CCOC[C@@H]1O)c1cc(Cc2ccc(-n3cccn3)cc2)c2ccsc2n1 [Compound 70] | 47.8 | 10
O=C(NC1CCOCC1)c1cc(Cc2ccc(-n3cccn3)cc2)c2ccsc2n1 [Compound 71, 4-[(4-pyrazol-1-ylphenyl)methyl]-N-tetrahydropyran-4-yl-thieno[2,3-b]pyridine-6-carboxamide] | 73.4 | 140
